Assay results as given in paper PMC8188608 (Chemical Science, 2021).

Target: ΔmtDXPS (Mycobacterium tuberculosis, UniProt P9WNS3, D231G/I229G/K230G/L233G/S232G/S234G)
Format: binding

## O=C(CCCOc1ccc(Cl)cc1Cl)NCCc1ccc(O)cc1F [Compound 39]
  fold decrease in binding affinity for ΔmtDXPS: ~1.5 fold
